No end group written: not given here.
Columns and labels:
Assay in all cases: biochemical
Format in all cases: binding
HLA-A*3301 = HLA-A*3301 (Homo sapiens, UniProt P04439, A270S/D185E/E176V/E277Q/E87N/F33T/G231S/H175R/I121M/I218V/I322F/K168Q/K210R/L300P/L318F/M331R/P217A/Q86R/Q94H/R138Q/T323A/T345S/T97I/V358M/Y195H)
HLA-A*0301 = HLA-A*0301 (Homo sapiens, UniProt P04439)
HLA-A*6801 = HLA-A*6801 (Homo sapiens, UniProt P04439, A269V/D185E/E176V/E277Q/E87N/F33Y/G231S/I121M/I166T/I218V/L180W/L300P/L318F/N151K/P208A/P217A/Q86R/R169H/T345S)
HLA-A*3101 = HLA-A*3101 (Homo sapiens, UniProt P04439, A270S/D185E/E176V/E277Q/F33T/G231S/G80R/H175R/I121M/I218V/I322F/K168Q/L300P/L318F/M331R/P217A/Q94H/R138Q/T323A/T345S/T97I/V358M)
HLA-A*1101 = HLA-A*1101 (Homo sapiens, UniProt P04439, A114D/D185E/E176A/F33Y/L180Q/S129P/T187R)

Sequence	IC50 (HLA-A*3301) [µM]	IC50 (HLA-A*0301) [µM]	IC50 (HLA-A*6801) [µM]	IC50 (HLA-A*3101) [µM]	IC50 (HLA-A*1101) [µM]
ATRDLCIVYR	0.044	0.237	0.028	0.0047	
RFEDPTRRPYK	1.76		7.34	0.053	0.432
RFYITTRYK	0.098	0.0019	17.5	0.015	
AVDLSFFLK	> 27.8	0.226	4.04	6.21	
FLFTDLRIVYR	0.021	0.672	0.0014	0.058	
EVYKFLFTDLR	0.0043	31.2	0.011		0.602
QMGPGPGNFK	101	0.049	0.063	2.68	
KISEYRHYNY	35.3	0.042	25.1		
ILYRDCIAY	44.7		> 19.6		1.83
VTVKVGGQLK	46.2	0.206	0.104		0.054
ILDLWVYK	30.1		12.1	13.7	0.32
ATTDLTIVYR	1.74		0.014	0.034	0.01
KILIKIPVTK	25		19.6	1.66	0.06
GTRQTRKNRK	60.2		6	2.49	
DSIPHAACHR	0.0022	2.77	0.027		0.853
KFSEYRHYNY	18.4	5.82	1.8		
QLARQAKQH	1.66	8.42	0.243	0.945	
KMGPGPGK	106	0.084	4.16	1.14	
SLFGPGPGK	82.3	0.0034	0.036		0.0023

Sequence	IC50 (HLA-A*3301) [µM]	IC50 (HLA-A*0301) [µM]	IC50 (HLA-A*6801) [µM]	IC50 (HLA-A*3101) [µM]	IC50 (HLA-A*1101) [µM]
AVSEIQNNK	25.4	0.025	0.014		0.011
LVYSKVRKYR	0.049	0.32	0.031		0.619
ELFDKDTFFK	0.013	0.144	0.0036	3.68	
SSPLFNNFYK	1.73	0.1	0.0063		0.0007
LVYRDDFPK	1.97		0.13	3.01	0.013
RFCLLFYSK	0.45		0.232	0.083	0.484
QMAGPGPGFK	4.78	0.0094	0.03		0.0062
GVLDGLIYSK	> 25.2		0.831	6.01	0.021
LVGPGPGK	> 126	1	0.598	23.9	
LLFYSKVRR	0.276	0.056	0.011		0.073
NLVYGETLEK	0.121	0.846	0.087	0.761	
VTVKIGGQLR	3.83	19.2	0.052		
KFIDFYSRIR	0.677		2.55	0.0033	9.01
FAFTDLTIVY	131		0.346	42.1	21.2
KVLCDLLIR	5.9	0.363	9.05	0.066	
VVHAQLPAR	0.012		0.201	0.0034	0.127
VTVGPGPGVWK	75.4		0.021	2.73	0.0027
GTRQTRKNK	> 29.7		18.7	13.4	3.1
LQMMNVNLQK	1.11	0.025	0.32		0.0072

Sequence	IC50 (HLA-A*3301) [µM]	IC50 (HLA-A*0301) [µM]	IC50 (HLA-A*6801) [µM]	IC50 (HLA-A*3101) [µM]	IC50 (HLA-A*1101) [µM]
VTIRIGGQLR	1.35	3.19	0.016	0.061	
RMYVGGVEH	> 123	0.0038	> 28.8		0.274
IALLIIPPK	1.4		1.96		0.108
RFYSKVSEFK	4.45	0.027	0.547	0.03	
TTRYKYLNK	0.652	0.117	2.56		0.848
STLPEGPGPGR	0.822		0.03	0.028	
MFQDPQERPRK	0.419	15.5		0.604	8.57
TVGPGPGPEK	98.2		0.023	10.1	0.017
FVDLTIVYR	0.43	29.7		2.38	5.31
KQHTCYLIR	2.28		12.2	0.013	0.213
PAAYAAQGYK	> 111	0.95	0.666	20.3	
RFHNIAGHYK	0.08	0.025	0.023	0.0026	
EQRLPLLPK	0.987	1.09	1.91		0.765
KTLGISYGRKK	23.4	0.052	0.647	0.091	
AVLQDIVLH	25.8		27	6.31	
KSKFGYGAK	> 123	0.036	> 7.63		0.596
RFEVYQFAFK	2.87		2.44		0.611
FVVQLDIQSTK	31.4	3.68	0.0027		0.853
SVYGTTLER	0.454	0.028	0.021		0.0064

Source: patent US20060079453A1, “Hla binding peptides and their uses” (priority 2002, published 2006)
